From PubChem BioAssay AID200 (DTP/NCI, 2004)
Inconclusive results and toxic doses are left out.

Tested on: B6C3F1 mice, B16 melanoma ip, median survival T/C
Assay: NCI In Vivo Anticancer Drug Screen. Data for tumor model B16 Melanoma (intraperitoneal) in B6C3F1 mice
Details: endpoint: median survival time, schedule: Q01DX009 (ip), higher = longer survival
Procedure, shortened: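 Transplantable tumor in mice; treated vs vehicle control groups; survival or tumor size measured; value = T/C ratio.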

`O=C1c2ccccc2C(=O)N1CC#CCN1C(=O)c2ccccc2C1=O` was tested, and the T/C (dose: 75.0 mg/kg/injection, vehicle: saline with Tween-80) was 108 % of control, the T/C (dose: 150.0 mg/kg/injection, vehicle: saline with Tween-80) was 93 % of control and the T/C (dose: 300.0 mg/kg/injection, vehicle: saline with Tween-80) was 90 % of control.

With `[Cl][Pt+2][Cl].[NH-]CC1(C[NH-])CCC1` the T/C (dose: 0.19 mg/kg/injection, vehicle: suspension in saline) was 107 % of control, the T/C (dose: 0.39 mg/kg/injection, vehicle: suspension in saline) was 114 % of control and the T/C (dose: 0.78 mg/kg/injection, vehicle: suspension in saline) was 123 % of control. The T/C (dose: 1.56 mg/kg/injection, vehicle: suspension in saline) was 151 % of control and the T/C (dose: 3.12 mg/kg/injection, vehicle: suspension in saline) was 167 % of control.

`CCCCC/C(=C\c1ccccc1)C1OCC(COCC)O1` (configuration not stated) was tested, and the T/C (dose: 6.25 mg/kg/injection, vehicle: saline + Tween-80 + alcohol) was 87 % of control, the T/C (dose: 12.5 mg/kg/injection, vehicle: saline + Tween-80 + alcohol) was 91 % of control and the T/C (dose: 25.0 mg/kg/injection, vehicle: saline + Tween-80 + alcohol) was 94 % of control. The T/C (dose: 50.0 mg/kg/injection, vehicle: saline + Tween-80 + alcohol) was 93 % of control.
